Reference: patent publication US20240285553A1, “METHODS TO MODULATE MITOPHAGY WITH SREBP SIGNALING PATHWAY ACTIVATORS” (THE TRUSTEES OF INDIANA UNIVERSITY, priority 2021, published 2024)
Entries after “also recorded” stand apart in the source; their conditions may differ.

Key:
[1] = test system: SREBP1; test: Immunofluorescence of SREBP1 nuclear accumulation; assay type: cell-based, human; details: ECs, IF
From the text: (§1) Immunofluorescence Microscopy. Cells were fixed with 4% Formaldehyde (Electron Microscopy Sciences, #C993M24) and permeabilized in the presence of 0.1% Triton X-100 (Sigma). Full-length SREBP1 was stained using mouse monoclonal antibody from Santa Cruz Biotechnology (Cat #sc-365513). Whereas nuclear SREBP1 was detected using antibody from Novus biological (Cat #NB100-2215). Mitophagy was confirmed by staining mitochondrial Tom20 and lysosomal marker LAMP1. Tom20 and LAMP1 antibodies were purchased from Cell Signaling (Cat #42406S and 15665S, respectively). Images were captured on an inverted fluorescent microscope (Leica).
NCEH1 knockdown experiments. NCEH1 was depleted using siRNA pool from Dharmacon or Lentiviral shRNA from Sigma. NCEH1 depletion was confirmed on a Western blot or by immunofluorescence assay.
Although pharmacological inhibition of NCEH1 promoted nuclear accumulation of SREBP1, genetic evidence further supports these observations. To this end, ECs were transfected with control or siNCEH1 siRNA and localization of SREBP1 or NCEH1 was captured on IF microscope.

[2] = test system: SREBP1; test: Western blot of SREBP1, SCD and NCEH1 (SREBP1 activation); assay type: cell-based, human; details: for SCD (SREBP1 target) levels / SREBP1 levels (non-cleaved; decrease indicates cleavage and activation): ECs / PAEC; for SCD (SREBP1 target) levels / SREBP1 levels (non-cleaved; decrease indicates cleavage and activation) / NCEH1 levels: western blot
From the text: Western blot. Cell lysates were resolved on a SDS PAGE pre-cast gel (Invitrogen) and resolved proteins were transferred on to a PVDF membrane for further detection of proteins using specific antibodies. Antibodies for SREBP1 were purchased from Santa Cruz Biotechnology (Cat #sc-365513) and Novus biological (Cat #NB100-2215). SCD antibody was purchased from Santa Cruz Biotechnology (Cat #sc-58420). Tom20 and LAMP1 antibodies were purchased from Cell Signaling (Cat #42406S and 15665S, respectively). […]

[3] = test system: pulmonary arterial endothelial cells (PAECs); test: Western blot of mitochondrial marker TOM20 as measure of mitophagy; assay type: cell-based, human; details: for Tom20 levels (mitophagy): ECs / PAEC
From the text: Western blot. Cell lysates were resolved on a SDS PAGE pre-cast gel (Invitrogen) and resolved proteins were transferred on to a PVDF membrane for further detection of proteins using specific antibodies. Antibodies for SREBP1 were purchased from Santa Cruz Biotechnology (Cat #sc-365513) and Novus biological (Cat #NB100-2215). SCD antibody was purchased from Santa Cruz Biotechnology (Cat #sc-58420). Tom20 and LAMP1 antibodies were purchased from Cell Signaling (Cat #42406S and 15665S, respectively).
(§2) First, degradation of a mitochondrial marker (TOM20) was evaluated as a bio-chemical marker of mitophagy induction.

[4] = test system: laser-induced CNV in mice; test: Laser-induced choroidal neovascularization (CNV) mouse model; assay type: in vivo; details: 20 mg/kg for seven days
Method: The eye offers an opportune model to study vascular pathology. The laser-induced choroidal neovascularization (CNV)) mouse model is used to study pathologic exudative angiogenesis as a major contributor to age-related macular degeneration (AMD). To test the protective effects of NCEH1 blockade, CNV was induced in two groups of mice that are exposed to either vehicle or 20 mg/kg of JW480 for seven days (n=12 each). […] Cumulatively, these mice studies provide evidence for the therapeutic use of JW480 in pathological CV conditions.

[5] = target: T1, NCEH1-phosphatidylserine interactions (Homo sapiens, UniProt Q6PIU2); test: Dot blot membrane strip assay of NCEH1 binding to phosphatidylserine; details: purified NCEH1 protein on lipid membrane strip, in vitro
T1 sequence (Q6PIU2 1-408): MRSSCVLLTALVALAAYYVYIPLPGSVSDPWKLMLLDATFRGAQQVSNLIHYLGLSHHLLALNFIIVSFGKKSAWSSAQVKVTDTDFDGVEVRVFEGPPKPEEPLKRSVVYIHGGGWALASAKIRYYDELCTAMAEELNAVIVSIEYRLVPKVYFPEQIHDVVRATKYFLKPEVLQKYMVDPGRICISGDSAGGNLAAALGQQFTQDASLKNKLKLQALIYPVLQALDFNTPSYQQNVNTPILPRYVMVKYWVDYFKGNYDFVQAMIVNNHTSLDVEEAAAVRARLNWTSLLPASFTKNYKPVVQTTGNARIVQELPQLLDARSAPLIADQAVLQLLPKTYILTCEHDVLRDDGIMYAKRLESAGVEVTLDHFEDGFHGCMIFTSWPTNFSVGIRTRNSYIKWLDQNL
Method: Membranes having the specified compounds were incubated with purified NCEH1 protein and the membrane was developed with NCEH1 antibody. […] ECs were treated with papuamide and cell extracts were blotted with indicated antibodies.

[6] = test system: ECs; test: Transmission electron microscopy for mitophagy; assay type: cell-based, human; details: 10 uM propranolol, 10 uM R-propranolol or 0.1 uM JW480 for 12 hours
Method: Transmission Electron Microscopy. […] Thin sections from these fixed cell blocks were visualized on Tecnai Spirit (ThermoFisher) TEM Microscope. Images captured were analyzed.
TEM evidence. […] ECs exposed to these drugs were fixed and the images were captured on a TEM.

[7] = test system: PAEC / ECs; test: Immunofluorescence microscopy of Tom20 and lysosomal marker LAMP1 (mitophagy); assay type: cell-based, human; details: for mitophagy by immunofluorescence (Tom20/Lamp1): ECs
From the text: as §1, with “Mitophagy was confirmed by staining mitochondrial Tom20 and lysosomal marker LAMP1.” left out
as §2
Fixed cells were stained with Tom20 and Lamp1 and the fluorescence images were captured on a fluorescence microscope.

[8] = test system: myocardial infarction in mice; test: Myocardial infarction (MI) mouse model, ligation of the left coronary artery; assay type: in vivo
Method: Ligation of the left coronary artery is a well-accepted mouse model of myocardial infarction (MI), associated with high mortality (>70% in lwk). […] Mice were treated with vehicle or 20 mg/kg JW480 (IP, n=6 males & 6 females) for five days and subjected to an MI.

[9] = test system: HF-PH mice; test: High-fat diet AKR/J HF-PH mouse model; assay type: in vivo; details: 4 weeks, implanted mini osmotic pump, vs vehicle
From the text: FIG. 14: Using a mouse model fed a high-fat diet, AKR/J mice develop obesity, insulin resistance, heart failure with preserved ejection fraction, and pulmonary hypertension and are designated as “HF-PH mice”.
Using a mouse model fed a high-fat diet (Research Diets, New Brunswick, NJ) for 16-20 weeks, AKR/J mice (Jackson Laboratories, Bar Harbor, ME) develop obesity, insulin resistance, heart failure with preserved ejection fraction, and pulmonary hypertension. (Meng, et al., 2017; Arwood, et al., 2019).

[10] = test system: SREBP1 pathway; test: RNA sequencing and pathway analysis of propranolol-treated ECs; assay type: cell-based, human; details: ECs treated with propranolol
From the text: SREBP1 is a key transcription factor that promotes lipid synthesis upon activation. Normally, SREBP1 protein is retained in the endoplasmic reticulum by high levels of cholesterol. When the cholesterol levels drop, SREBP1 protein gets translocated to the Golgi where it is cleaved, and the transcriptional activation portion of this protein gets translocated to the nucleus. Subsequently, SREBP1 activates a transcription program of genes involved in lipid synthesis. RNAseq data was generated to study mechanisms of propranolol-mediated PAEC mitophagy induction. […] ECs were treated with propranolol and the total RNA isolated from the cells were subjected to high through-put RNA sequencing.

[11] = test system: MCT-induced PAH in rats; test: Rat MCT (monocrotaline) model of PAH; assay type: in vivo
Method: Rat MCT model of PAH. SD rats were given one dose of MCT injection to induce pulmonary hypertension. […] Rats were anesthetized and RVSP recorded.
Rats were injected with MCT to develop PAH in a well-established 4 week rodent model of the disease.

[12] = target: T2, SREBP1-NCEH1 complex (Homo sapiens, UniProt Q6PIU2); test: Immunoprecipitation of endogenous SREBP1-NCEH1 complex; assay type: cell-based; details: ECs, vs vehicle
T2 construct: endogenous in cells; host or cells: cultured endothelial cells (ECs)
T2 sequence (Q6PIU2 1-408): T1 sequence (Q6PIU2 1-408)
Method: Immunoprecipitation Assay. In determining endogenous SREBP1-NCEH1 complex formation, cultured endothelial cells were treated with IP lysis buffer (Pierce Cat #87787). SREBP1 complex was captured using SREBP1 antibody from Santa Cruz Biotechnology (Cat #sc-365513) and resolved on a SDS PAGE. Complex formation with NCEH1 was detected by blotting with NCEH1 antibodies (Sigma Cat #HPA026888). To map the domain of SREBP1 that binds to NCEH1, HA tagged full-length SREBP1 or C-terminal regulatory domain alone were co-expressed along with Flag tagged NCEH1 in HEK293 cells. SREBP proteins were captured on HA antibodies (Cell Signaling) and blotted with Flag antibodies (Sigma).

[13] = donor (non-PAH control)-derived PAEC / normal control ECs

papuamide
nuclear translocation of SREBP1 [1]: promotes nuclear translocation of SREBP1 | activation of non-canonical SREBP1 pathway ([2]; ECs, cell extracts blotted): activate a non-canonical SREBP1 pathway

N#CC(C#N)=NNc1cccc(Cl)c1 [CCCP, carbonyl cyanide m-chlorophenylhydrazone]
mitophagy induction (TOM20 level) ([3]; PAH patient-derived PAEC): not observed; also recorded: failed to promote mitophagy | mitophagy induction (TOM20 level) [3, 13]: induced mitophagy; also recorded: promotes mitophagy

CC(C)c1ccccc1OC(=O)NCCc1ccc2ccccc2c1 [JW480]
pathologic CNV [4]: inhibited pathologic CNV | retinal vessel leakage [4]: significantly reduced retinal vessel leakage | nuclear translocation of SREBP1 [1]: promoted nuclear translocation of SREBP1 | Tom20 levels (mitophagy) [3]: lower | Tom20 levels (mitophagy) ([3]; listed as NCEH1): reduced the levels of Tom20 | NCEH1-phosphatidylserine interaction [5]: disrupts NCEH1-phosphatidylserine interactions | mitophagy by TEM (bilipid membrane formation around mitochondria) [6]: promoted mitophagy | SCD (SREBP1 target) levels [2]: elevated | SREBP1 levels (non-cleaved; decrease indicates cleavage and activation) [2]: reduce SREBP1 levels | SCD (SREBP1 target) levels ([2]; listed as NCEH1): sufficient to activate SREBP1 target SCD | NCEH1 levels ([2]; ECs): higher | mitophagy by immunofluorescence (Tom20/Lamp1) [7]: Tom20 was mobilized to lysosome | intracellular lipid droplets (TEM) ([8]; JW480-treated mice): increased intracellular lipid droplets | survival after MI ([8]; mice, 20 mg/kg IP for five days before MI): significantly improved survival

COCCc1ccc(OCC(O)CNC(C)C)cc1 (stereo not drawn) [metoprolol]
Tom20 levels (mitophagy) [3]: failed to promote mitophagy

OC(CNCC(O)C1CCc2cc(F)ccc2O1)C1CCc2cc(F)ccc2O1 (stereo not drawn) [nebivolol]
Tom20 levels (mitophagy) [3]: failed to promote mitophagy

CC(C)NCC(O)COc1cccc2ccccc12 (racemic) [propranolol]
right ventricular systolic pressure [9]: significantly decreased | SREBP1 transcriptional targets and transcript levels (RNA-seq) [10]: activated transcriptional targets, as well as transcript levels of SREBP1 | nuclear translocation of SREBP1 [1]: promoted nuclear translocation of SREBP1 | Tom20 levels (mitophagy) [3]: decreased Tom20 levels; also recorded: robustly induced mitophagy; also recorded: TOM20 levels go down; also recorded: lower | mitophagy induction (TOM20 level) ([3]; PAH patient-derived PAEC): reduced TOM20 levels; also recorded: consistently decreased Tom20 levels in PAH patient cells much more robustly than in normal cells | mitophagy induction (TOM20 level) [3, 13]: reduced TOM20 across all cells | right ventricle systolic pressures (RVSP) ([11]; 10 mg/kg IP for the last 2 of 4 weeks): significantly reduced | MCT-induced arterial wall thickness ([11]; 10 mg/kg IP, lung sections H&E): negated MCT-induced arterial wall thickness | full length SREBP1 immunoprecipitated ([12]; anti-SREBP1 antibody beads): less full length SREBP1 immunoprecipitated | NCEH1 complexed with full length SREBP1 ([12]; blotted with NCEH1 antibody): reduced NCEH1 complexed with full length SREBP1 | NCEH1-phosphatidylserine interaction [5]: disrupts NCEH1-phosphatidylserine interactions | mitophagy by TEM (bilipid membrane formation around mitochondria) [6]: promotes bilipid membrane formation around mitochondria more frequently than vehicle treated cells; also recorded: promoted mitophagy | SCD (SREBP1 target) levels [2]: increased; also recorded: elevated | SREBP1 levels (non-cleaved; decrease indicates cleavage and activation) [2]: SREBP1 levels go down; also recorded: reduce SREBP1 levels | NCEH1 levels ([2]; ECs): higher | effect on inhibitor effects of fatostatin ([2]; PAEC, propranolol with fatostatin, last lane of western blot): able to rescue inhibitor effects of fatostatin | mitophagy by immunofluorescence (Tom20/Lamp1) [7]: induce mitophagy; also recorded: Tom20 was mobilized to lysosome | TOM20/Lamp1 co-staining ([7]; propranolol treated PAH patient-derived PAEC): reduced TOM20/Lamp1 co-staining

CCN(CC)CCO[C@H]1CC[C@@]2(C)C(=CC[C@@H]3[C@@H]2CC[C@]2(C)C(=O)CC[C@@H]32)C1.Cl [U18666A]
mitophagy by immunofluorescence (Tom20/Lamp1) [7]: induce mitophagy
